In PubChem BioAssay (NCI):
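In this assay, cells in 96-well plates receive the compound at five concentrations for 48 hours. Endpoints are linearly interpolated between the surrounding concentrations. The concentration for 50% growth inhibition is given as GI50. TGI: total growth inhibition.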

Columns and labels:
Assay in all cases: DTP human tumour cell line panel, 48 h
DMS 273 small cell lung = test system: DMS 273 small cell lung
NCI/ADR-RES ovarian = test system: NCI/ADR-RES ovarian
PC-3 prostate = test system: PC-3 prostate
OVCAR-5 ovarian = test system: OVCAR-5 ovarian
786-0 renal = test system: 786-0 renal
RPMI-8226 leukemia = test system: RPMI-8226 leukemia
SNB-19 CNS = test system: SNB-19 CNS
SW-620 colon = test system: SW-620 colon
SNB-78 CNS = test system: SNB-78 CNS
RXF 393 renal = test system: RXF 393 renal

Compound	TGI (DMS 273 small cell lung)	TGI (NCI/ADR-RES ovarian)	TGI (PC-3 prostate)	TGI (OVCAR-5 ovarian)	TGI (786-0 renal)	TGI (RPMI-8226 leukemia)	TGI (SNB-19 CNS)	TGI (SW-620 colon)	TGI (SNB-78 CNS)	TGI (RXF 393 renal)	GI50 (DMS 273 small cell lung)	GI50 (NCI/ADR-RES ovarian)	GI50 (PC-3 prostate)	GI50 (OVCAR-5 ovarian)	GI50 (786-0 renal)	GI50 (RPMI-8226 leukemia)	GI50 (SNB-19 CNS)	GI50 (SW-620 colon)	GI50 (SNB-78 CNS)	GI50 (RXF 393 renal)
Nc1cc2[nH]cnc2c(=O)[nH]1	> 146000 nM	> 300000 nM	> 300000 nM	> 289000 nM	> 300000 nM	> 300000 nM	> 300000 nM	> 300000 nM	> 300000 nM	> 300000 nM										
CCC[CH2][Sn]1([CH2]CCC)[O]C(=O)c2ccc(N)cc2[O]1	2560 nM	4120 nM	2230 nM	3300 nM	1610 nM	1790 nM	2170 nM	1090 nM	1180 nM	427 nM	1040 nM	1760 nM	985 nM	1770 nM	410 nM	143 nM	734 nM	224 nM	80.1 nM	112 nM
